Test results taken from patent US9216204B2, “Bone targeted therapeutics and methods of making and using the same” (MBC Pharma, Inc., priority 1998, dated 2015).

What was measured:
[1] = Mineral-binding ability by retention time on hydroxyapatite HPLC column; settings: pH = 6.8, 2 mL/min
Description: B. […] The flow rate was 2 mL min^−1. […] Nucleoside mono-, di-, and triphosphates were recorded at a wavelength of 260 nm and zoledronate at a wavelength of 218 nm. The concentration of the eluted compounds was 0.3 mmol L^−1.

[2] = Binding of bisphosphonate conjugates on hydroxyapatite powder (UV absorbency of supernatant); settings: pH 7.0
Description: A. To estimate the binding of BC on hydroxyapatite (mineral component of a bone) UV spectra of BC in buffer pH 7 were recorded before and after treatment with hydroxyapatite. To this end 10 μl of hydroxyapatite suspension in water was added to 1 ml of ˜10^−4 M solution of a BC in 0.1M Tris-HCl buffer, pH 7.0, 0.15 M NaCl and the mixture was intensively shaken for 10 minutes, and centrifuged for 5 minutes at 10,000 rpm in a microcentrifuge. The supernatant was separated and an absorbency spectrum of the supernatant was recorded.

[3] = 1500 mM sodium phosphate buffer

Retention time on hydroxyapatite column [1, 3] [min] | Retention time on hydroxyapatite column ([1]; 500 mM sodium phosphate buffer) [min] | SMILES | % of bound compound [2] [%] | % of nonbound compound [2] [%]
3.5 | – | O=c1ccn([C@@H]2O[C@H](COP(=O)(O)OP(=O)(O)OP(=O)(O)O)[C@@H](O)[C@H]2O)c(=O)[nH]1 [UTP] | – | –
3.47 | 5.75 | O=c1ccn([C@@H]2O[C@H](COP(=O)(O)OP(=O)(O)O)[C@@H](O)[C@H]2O)c(=O)[nH]1 [UDP] | – | –
3.42 | 4.25 | O=c1ccn([C@@H]2O[C@H](COP(=O)(O)O)[C@@H](O)[C@H]2O)c(=O)[nH]1 [UMP] | – | –
17.35 | – | O=P(O)(O)C(O)(Cn1ccnc1)P(=O)(O)O [Zoledronate, zoledronate] | – | –
– | – | O=c1[nH]c(=O)n(COCCOP(=O)(O)OP(=O)(O)CP(=O)(O)O)cc1F [II, Anhydride of 1-(2′-hydroxyethoxymethyl)-5-fluorouracil-2′-phosphate and methylenediphosphonic acid] | 87.26 | 12.74

SMILES | Retention time on hydroxyapatite column [1, 3] [min] | Retention time on hydroxyapatite column ([1]; 500 mM sodium phosphate buffer) [min] | % of bound compound [2] [%] | % of nonbound compound [2] [%]
CC(O)(P(=O)(O)O)P(=O)(O)OP(=O)(O)OCC1OC(n2cc(F)c(=O)[nH]c2=O)C(O)C1O (stereo not drawn) [VI, anhydride of 5-Fluoro-uridine-5′-monophosphoric acid and 1-Hydroxyethylidene-1,1-diphosphonic acid] | 6.00 | 17.72 | 69.66 | 30.34
